The target of the assay is T1, ARAF (Homo sapiens, UniProt P10398).
T1 construct: ARAF kinase reactions were rigorously the same with the exception that kinase concentration was raised to 3.75 nM (cat. No. 1768-0000-1; Reaction Biology)
T1 sequence (P10398 303-606 limits assumed): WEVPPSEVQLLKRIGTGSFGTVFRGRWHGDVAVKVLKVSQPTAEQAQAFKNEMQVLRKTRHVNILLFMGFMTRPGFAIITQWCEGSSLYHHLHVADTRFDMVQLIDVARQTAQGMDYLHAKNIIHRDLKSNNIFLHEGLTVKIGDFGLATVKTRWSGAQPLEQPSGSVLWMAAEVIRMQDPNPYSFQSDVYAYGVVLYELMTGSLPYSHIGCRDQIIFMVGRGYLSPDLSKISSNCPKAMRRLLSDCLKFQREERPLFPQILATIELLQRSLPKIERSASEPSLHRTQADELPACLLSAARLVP
Put plainly: ARAF kinase activity assay (AlphaLISA p-MEK 1/2). In kind it is biochemical. As to conditions: Table A; 10 μM ATP, kinase-dead MEK1 substrate. How it is done:
Compound preparation: solid samples of each substance in 1dram vials were suspended in DMSO (Fisher Scientific) at a stock concentration of 20 mM. Stocks were kept at −20° C. and protected from light. If solubility of the compound at 20 mM appeared to be an issue, the initial concentration of the DMSO stock was changed to 10 mM or 5 mM.
In vitro enzymatic reactions were used for evaluating compounds intrinsic activity against BRAF, CRAF and ARAF. For BRAF and CRAF, 0.375 nM of purified GST-tagged kinases (cat. No. B4062-10UG and cat. No. R1656-10UG respectively from Millipore Sigma) were incubated with 75 nM of kinase-dead MEK1 substrate (cat. No. 40075; BPS Bioscience) in the presence of 10 μM of Ultrapure ATP (cat. No. V9102; Promega; part V915A) with and without the test compound in a buffer containing 50 mM HEPES pH 7.5, 10 mM MgCl2, 1 mM EDTA, 0.01% Brij-35 and 2 mM DTT. Separate reactions were performed with the MEK1 substrate and ATP as a blank control. ARAF kinase reactions were rigorously the same with the exception that kinase concentration was raised to 3.75 nM (cat. No. 1768-0000-1; Reaction Biology).
For compound treatment, 5 μL/well of test substance solution are placed in a 384-well proxyplate (Perkin Elmer) and mixed with 2× concentrated kinase reactions. The dilution series is selected so that nine concentrations cover a range from 100 nM to 0.01 nM. […] The final concentration of DMSO in the assay is set at 0.05%.
ARAF kinase reactions were carried out for a total of 2 hours at 30° C. and then stopped by addition of EDTA at a final concentration of 40 mM. Reactions were then detected using the AlphaLISA® SureFire® Ultra™ p-MEK 1/2 (Ser218/222) (PerkinElmer) kit. Reactions were performed with 5 μL of kinase reaction according to the manufacturer's specifications in 384-well proxyplates (Perkin Elmer) followed by overnight incubation of the AlphaLISA® reactions at room temperature in a humidified chamber. After completion of the detection reactions, the signals were recorded on a Synergy Neo2 plate reader (Biotek) equipped with AlphaLISA® filters. The effect of each compound dilution on the pMEK signal generated by ARAF reactions was expressed in % inhibition and calculated as follows. An internal 100% inhibition control (average of luminescence in kinase reactions comprising kinase dead MEK1 substrate alone) was included in each plate to measure of pMEK background and was subtracted from each data point. The average of DMSO (vehicle) controls (set as 0% inhibition) was also established and used to calculate % inhibition:
IC50 values were obtained by plotting the kinase inhibition values and fitting the dose-activity curves using a log(agonist) versus response—variable slope (four parameters) function using either GraphPadPrism (V7.0) or Dotmatics Screening Ultra platform. Standards included in the ARAF kinase assay were Belvarafenib (MedChem Express cat. No. HY-109080; CAS No. 1446113-23-0), LXH254 (MedChem Express cat. No. HY-112089; CAS No. 1800398-38-2) and BGB283 (cat. No. HY-18957; CAS No. 1446090-79-4).
Background: Alpha assays give light when donor and acceptor beads are brought close together.

By IC50 is commonly meant the concentration that gives 50% inhibition.

Regarding `Cc1ccc(NC(=O)c2ccnc(C(F)(F)F)c2)cc1-c1cc(OCCO)nc(N2CCOCC2)c1` [LXH254], the IC50 was over 10 nM.
In the case of `O=C1CCc2c(Oc3ccc4c(c3)[C@@H]3[C@H](O4)[C@H]3c3nc4ccc(C(F)(F)F)cc4[nH]3)ccnc2N1` [BGB283] it was over 10 nM.
